This note sets out measurements from PMC12498416, “Design of Tau Aggregation Inhibitors Using Iterative Machine Learning and a Polymorph-Specific Brain-Seeded Fibril Amplification Assay” (Journal of the American Chemical Society, 2025).

The target of assay [1] is T1, K12 tau (first-generation AD-brain-seeded K12 fibrils) (Homo sapiens, UniProt P10636, C639A).
T1 construct: gene MAPT; 3R fragment; E. coli; amyloid fibrils seeded with Alzheimer's disease brain homogenate, heparin-free
Kind of assay: fluorescence polarization with K12 fibrils. Particulars: 10 μM compound; AD-seeded K12 fibrils (monomer equivalents); 250 mM Na3citrate, 10 mM HEPES pH 7.4; 1% DMSO; room temperature; one-step binding fit. (In fluorescence polarisation assays a small probe gives low polarisation when free and higher when bound to something large.)

The target in assay [2] is T1, K12 tau (first-generation AD-brain-seeded K12 fibrils). Put plainly: ThT seeded aggregation kinetics ([…]/t1/[…]). Type of assay: biochemical. Particulars: read-out: KIC50; 5 μM K12 monomer seeded with 50 nM first-generation AD-derived K12 seeds; 250 mM Na3citrate, 10 mM HEPES pH 7.4; 1% DMSO; quiescent; inhibition of fibril formation.

A word on the Kd: it is the constant that tells how readily two partners part at equilibrium.

T1 sequence (P10636 561-717 C639A): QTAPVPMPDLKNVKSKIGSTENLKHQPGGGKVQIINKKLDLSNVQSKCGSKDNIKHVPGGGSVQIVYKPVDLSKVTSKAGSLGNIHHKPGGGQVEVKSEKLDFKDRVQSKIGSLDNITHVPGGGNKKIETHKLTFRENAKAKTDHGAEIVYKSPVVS

Turning to `Cc1noc(C2CCN(C(=O)CNC(=O)c3ccccc3)C2)n1` (stereo not shown) [I1.21], the dissociation constant Kd in assay [1] came to 1580 ± 150 nM. The IC50 in assay [2] is 2600 ± 500 nM.
For the compound `Cc1noc(C2CCN(C(=O)CCCc3ccccc3)CC2)n1` [I1.51], the equilibrium dissociation constant (Kd) in assay [1] was found to be 740 ± 280 nM. Moreover, in assay [2], the IC50 came to 7400 ± 5000 nM.
